US11844794B2, “Pharmaceutical compositions” (ADEPTIO PHARMACEUTICALS LIMITED, priority 2017, dated 2023)
Converted amounts (≈) assume the structure as drawn.

Assays:
[1] = pharmacokinetics after oral administration to male Beagle dogs; assay type: in vivo, Beagle dog
Description: Doses were administered orally, via gavage, at a dose volume of 2.00 mL/kg yielding the target dose level of 1.50 mg/kg. Following dosing, 10 mL of tap water was flushed down the gavage to ensure the entire dose was dispensed. Following dosing over four sessions each with one of the test materials, serial whole blood samples (circa. 1.3 mL) were collected from a jugular vein then placed into K2 EDTA treated tubes pre-dose and then 0.25, 0.50, 1, 2, 3, 4, 6, 12 and 24 hours post dose. Blood samples were placed immediately on a cool-block before being centrifuged within 15 minutes at 3,000×g, 10 minutes, 4° C. and resultant plasma drawn off. […] Doses were administered orally, via gavage, at a dose volume of 2.00 mL/kg yielding the target dose level of 1.50 mg/kg. Following dosing, 10 mL of tap water was flushed down the gavage to ensure the entire dose was dispensed. Following dosing over four sessions each with one of the test materials, serial whole blood samples (circa. 1.3 mL) were collected from a jugular vein then placed into K2 EDTA treated tubes pre-dose and then 0.25, 0.50, 1, 2, 3, 4, 6, 12 and 24 hours post dose. Blood samples were placed immediately on a cool-block before being centrifuged within 15 minutes at 3,000×g, 10 minutes, 4° C. and resultant plasma drawn off.

VMAT2 = target: T1, VMAT2 (Homo sapiens, UniProt Q05940); assay: % VMAT2 blocking by PET scan in human volunteers; assay type: in vivo
T1 construct: from tissue; host or cells: living human volunteers (in vivo PET scan)
From the text: Complete blocking of the VMAT2 proteins is considered undesirable as this can lead to unwanted side effects, such as Parkinsonism. […] The levels of VMAT2 blocking can be determined by competitive binding studies using Positron Emission Tomography (PET). By co-administering a radioactive ligand with the compound of interest at various concentrations, the proportion of binding sites occupied can be determined (see for example, Matthews et al., “Positron emission tomography molecular imaging for drug development”, Br. J. Clin. Pharmacol., 73:2, 175-186).
In four of the volunteers, blood sample were taken at 30, 60, 120 and 180 minutes after drug administration. Blood samples were not taken from the fifth volunteer. At 60 minutes after drug administration, PET scans were initiated and these were stopped at 120 minutes after drug administration.
The experiment was carried out at dosages of 7.5 mg, 15 mg and 22.5 mg.

[2] = equilibrium aqueous solubility by HPLC; assay type: physicochemical; settings: thermodynamic from solid; water, measured by HPLC; read-out: equilibrium solubility in water
Description: The aqueous solubilities of salts were measured by an equilibrium method in which an amount of the salt was weighed into a 2 ml vial equipped with a magnetic stirrer bar and water added. In cases where complete dissolution was observed, more material was added until the sample was exhausted. The slurry was then stirred for seven days before isolating the solids by centrifuge-filtration. The solids were analysed by XRPD and the filtrates were analysed by HPLC to determine the amount of (+)-alpha-dihydrotetrabenazine salt in solution. The solubilities were calculated against a calibration curve established for a (+)-alpha-dihydrotetrabenazine sample of known concentration.

[3] = system: non-amphetamine induced rats; assay: locomotor activity in rats without amphetamine induction, open field test; assay type: in vivo, rat; settings: Study 3, non-induced rats, 2.5 mg/kg or 5 mg/kg
Description: All animal experiments were carried out according to the National Institute of Health (NIH) guidelines for the care and use of laboratory animals, and approved by the National Animal Experiment Board, Finland. Male CD (Charles River Laboratories, Germany) at weight range of 200-250 g (165-200 g upon arrival) were used for the experiments. Animals were housed at a standard temperature (22±1° C.) and in a light-controlled environment (lights on from 7 am to 8 pm) with ad libitum access to food and water.
Locomotor activity of the rats was tested in open field arena. The open field test was performed during the rat light cycle and under a normal lighting evenly distributed to the test chambers. The paths of the rats were recorded by activity monitor (Med. Associates Inc.).
Dosing the vehicle, vehicle-amphetamine, (+)-α-DHTBZ or risperidone was done prior to LMA test. The rats were placed in the centre of the arena, and the path was recorded for 60 minutes.
Animals were grouped as follows: • Group 1: 10 rats treated with Vehicle • Group 2: 10 rats treated with (+)-α-DHTBZ 2.5 mg/kg • Group 3: 10 rats treated with (+)-α-DHTBZ 5 mg/kg • Group 4: 10 rats treated with risperidone 1 mg/kg

[4] = male Beagle dogs, oral 1.50 mg/kg (freebase equivalent)

T1 sequence (Q05940 whole entry): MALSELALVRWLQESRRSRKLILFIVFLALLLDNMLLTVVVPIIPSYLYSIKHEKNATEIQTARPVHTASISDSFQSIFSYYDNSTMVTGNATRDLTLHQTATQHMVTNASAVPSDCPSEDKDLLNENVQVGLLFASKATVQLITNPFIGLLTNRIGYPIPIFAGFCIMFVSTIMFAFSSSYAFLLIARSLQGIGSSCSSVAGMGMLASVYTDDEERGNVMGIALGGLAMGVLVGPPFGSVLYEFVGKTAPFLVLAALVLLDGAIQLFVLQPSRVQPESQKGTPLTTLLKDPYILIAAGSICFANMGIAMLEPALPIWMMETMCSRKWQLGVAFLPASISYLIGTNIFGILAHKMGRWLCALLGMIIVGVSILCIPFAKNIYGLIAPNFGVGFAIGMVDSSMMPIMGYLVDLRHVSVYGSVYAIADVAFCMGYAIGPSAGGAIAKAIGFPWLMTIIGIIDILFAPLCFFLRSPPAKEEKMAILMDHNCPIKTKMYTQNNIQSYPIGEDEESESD

Structure (SMILES): COc1cc2c(cc1OC)[C@H]1C[C@@H](O)[C@H](CC(C)C)CN1CC2 [(+)-α-dihydrotetrabenazine, (2R,3R,11bR)-3-isobutyl-9,10-dimethoxy-1,3,4,6,7,11b-hexahydro-2H-pyrido[2,1,a]isoquinolin-2-01]
- Cmax ([1]; dog, plasma, 1.5 mg/kg, male Beagle dogs, oral 1.50 mg/kg (freebase equivalent)): 58.7 ng/mL
- mean exposure [1, 4]: 64.26 ng·mL·h
- time post dose at which Cmax was observed [1, 4]: 0.25 h
- concentration at 6 h ([1]; male, Beagle (HsdRcc:DOBE), dog, plasma, po, 1.5 mg/kg, Plasma concentration of (+)-α-dihydrotetrabenazine, Male 2, oral 1.50 mg/kg (freebase equivalent), 6 h, BLQ = <0.10 ng/mL): 0.113 ng/mL
- % VMAT2 blocking (VMAT2; heavier individuals, doses as low as 7.5 mg): at least 50%
- % VMAT2 blocking (VMAT2; subject 1 (112 kg), 7.5 mg oral, PET 60-120 minutes after administration): 54%
- % VMAT2 blocking (VMAT2; subject 1 (112 kg), 15 mg oral, PET 60-120 minutes after administration): 73%
- % VMAT2 blocking (VMAT2; subject 1 (112 kg), 22.5 mg oral, PET 60-120 minutes after administration): 75%
- % VMAT2 blocking (VMAT2; subject 2 (76 kg), 7.5 mg oral, PET 60-120 minutes after administration): 73%
- % VMAT2 blocking (VMAT2; subject 2 (76 kg), 15 mg oral, PET 60-120 minutes after administration): 83%
- % VMAT2 blocking (VMAT2; subject 2 (76 kg), 22.5 mg oral, PET 60-120 minutes after administration): 82%
- % VMAT2 blocking (VMAT2; subject 3 (129 kg), 7.5 mg oral, PET 60-120 minutes after administration): 62%
- % VMAT2 blocking (VMAT2; subject 3 (129 kg), 15 mg oral, PET 60-120 minutes after administration): 69%
- % VMAT2 blocking (VMAT2; subject 3 (129 kg), 22.5 mg oral, PET 60-120 minutes after administration): 74%
- % VMAT2 blocking (VMAT2; subject 4 (59 kg), 7.5 mg oral, PET 60-120 minutes after administration): 84%
- % VMAT2 blocking (VMAT2; subject 4 (59 kg), 15 mg oral, PET 60-120 minutes after administration): 89%
- % VMAT2 blocking (VMAT2; subject 5 (91 kg), 7.5 mg oral, PET 60-120 minutes after administration): 73%
- % VMAT2 blocking (VMAT2; subject 5 (91 kg), 15 mg oral, PET 60-120 minutes after administration): 79%
- % VMAT2 blocking (VMAT2; subject 5 (91 kg), 22.5 mg oral, PET 60-120 minutes after administration): 82%
- solubility thermodynamic at 7 days [2]: 127 µg/mL (≈ 398 µM)
- stereotypic behaviour versus vehicle [3]: comparable
- total movement versus vehicle [3]: comparable
